Columns and labels:
Assay in all cases: combination Emax (second highest fraction inhibited in the dose matrix, 72 h); higher = more inhibition; extreme values may be limits of the assay
[1] = test system: SNU-C5 (Colorectal Carcinoma)
In short: (§1)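 Cell lines in DMEM/F12 or RPMI with 10% FBS were plated in 1536-well plates, held 24 hours at 37°C, 5% CO2, then given two-drug dose matrices for 72 hours (DMSO typically 0.2%). Viability was read by CellTiter-Glo 2.0 luminescence and scaled as inhibition from 0 (vehicle wells) to 1 (blank wells). Combination Emax is the second-highest inhibition in the matrix; Bliss excess is observed combination effect minus expected EA + EB − EA·EB, EA and EB being single-agent effects.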

[2] = test system: HCC2157 (Breast Carcinoma)
In short: as §1

[3] = test system: U-266 (Plasma Cell Myeloma)
In short: as §1

J82 (Bladder Carcinoma) = test system: J82 (Bladder Carcinoma)
In short: as §1

[4] = test system: MDA-MB-231 (Breast Carcinoma)
In short: as §1

[5] = test system: KM-H2 (Hodgkin's Lymphoma)
In short: as §1

[6] = test system: DB (B-Cell Non-Hodgkin's Lymphoma)
In short: as §1

[7] = test system: EM-2 (Chronic Myelogenous Leukemia)
In short: as §1

[8] = test system: SUIT-2 (Pancreatic Carcinoma)
In short: as §1

[9] = test system: COR-L23 (Non-Small Cell Lung Carcinoma)
In short: as §1

[10] = test system: HT-29 (Colorectal Carcinoma)
In short: as §1

[11] = test system: CTV-1 (T-Lymphoblastic Leukemia)
In short: as §1

NCI-H2369 (Mesothelioma) = test system: NCI-H2369 (Mesothelioma)
In short: as §1

ES7 (Ewing's Sarcoma) = test system: ES7 (Ewing's Sarcoma)
In short: as §1

DSH1 (Bladder Carcinoma) = test system: DSH1 (Bladder Carcinoma)
In short: as §1

RH-1 (Ewing's Sarcoma) = test system: RH-1 (Ewing's Sarcoma)
In short: as §1

[12] = test system: KARPAS-620 (Plasma Cell Myeloma)
In short: as §1

[13] = test system: LU-99A (Non-Small Cell Lung Carcinoma)
In short: as §1

[14] = test system: CFPAC-1 (Pancreatic Carcinoma)
In short: as §1

CAL-78 (Chondrosarcoma) = test system: CAL-78 (Chondrosarcoma)
In short: as §1

For CC1(C)CCC(CN2CCN(c3ccc(C(=O)NS(=O)(=O)c4ccc(NCC5CCOCC5)c([N+](=O)[O-])c4)c(Oc4cnc5[nH]ccc5c4)c3)CC2)=C(c2ccc(Cl)cc2)C1 [Venetoclax] + COc1cc(Nc2ncc3c(n2)-c2ccc(Cl)cc2C(c2c(F)cccc2OC)=NC3)ccc1C(=O)O [Alisertib] (first compound max 1 µM, 7x7, partner max 10 µM), the “combination Emax” value [1] was 0.347, the “combination Emax” value [2] was 0.877 and the “combination Emax” value [3] was 0.751. For the same molecule, the “combination Emax” value (J82 (Bladder Carcinoma)) was 0.351, the “combination Emax” value [4] was 0.392 and the “combination Emax” value [5] was 0.448. For the same molecule, the “combination Emax” value [6] was 0.949, the “combination Emax” value [7] was 0.903 and the “combination Emax” value [8] was 0.106. The “combination Emax” value [9] was 0.307, the “combination Emax” value [10] was 0.418 and the “combination Emax” value [11] was 0.976. For the same molecule, the “combination Emax” value (NCI-H2369 (Mesothelioma)) was 0.327, the “combination Emax” value (ES7 (Ewing's Sarcoma)) was 0.917 and the “combination Emax” value (DSH1 (Bladder Carcinoma)) was 0.53. For the same molecule, the “combination Emax” value (RH-1 (Ewing's Sarcoma)) was 1, the “combination Emax” value [12] was 1 and the “combination Emax” value [13] was 0.44. The “combination Emax” value [14] was 0.402 and the “combination Emax” value (CAL-78 (Chondrosarcoma)) was 0.598.
With CC1(C)CCC(CN2CCN(c3ccc(C(=O)NS(=O)(=O)c4ccc(NCC5CCOCC5)c([N+](=O)[O-])c4)c(Oc4cnc5[nH]ccc5c4)c3)CC2)=C(c2ccc(Cl)cc2)C1 [Venetoclax] + C[C@@H]1COCCN1C2=NC(=NC(=C2)C3(CC3)[S@](=N)(=O)C)C4=C5C=CNC5=NC=C4 [AZD6738] (first compound max 1 µM, 7x7, partner max 10 µM) the “combination Emax” value [1] was 0.784, the “combination Emax” value [2] was 0.877 and the “combination Emax” value [3] was 0.614. For the same molecule, the “combination Emax” value (J82 (Bladder Carcinoma)) was 0.483, the “combination Emax” value [4] was 0.624 and the “combination Emax” value [5] was 0.879. The “combination Emax” value [6] was 0.983, the “combination Emax” value [7] was 0.943 and the “combination Emax” value [8] was 0.471. The “combination Emax” value [9] was 0.585, the “combination Emax” value [10] was 0.865 and the “combination Emax” value [11] was 0.924. For the same molecule, the “combination Emax” value (NCI-H2369 (Mesothelioma)) was 0.233, the “combination Emax” value (ES7 (Ewing's Sarcoma)) was 0.941 and the “combination Emax” value (DSH1 (Bladder Carcinoma)) was 0.659. For the same molecule, the “combination Emax” value (RH-1 (Ewing's Sarcoma)) was 0.959, the “combination Emax” value [12] was 0.996 and the “combination Emax” value [13] was 0.619. For the same molecule, the “combination Emax” value [14] was 0.554 and the “combination Emax” value (CAL-78 (Chondrosarcoma)) was 0.605.
CC1(C)CCC(CN2CCN(c3ccc(C(=O)NS(=O)(=O)c4ccc(NCC5CCOCC5)c([N+](=O)[O-])c4)c(Oc4cnc5[nH]ccc5c4)c3)CC2)=C(c2ccc(Cl)cc2)C1 [Venetoclax] + C[C@@H](Nc1cc(F)cc(F)c1)c1cc(C(=O)N(C)C)cc2c(=O)cc(N3CCOCC3)oc12 [AZD8186] (first compound max 1 µM, 7x7, partner max 3 µM) was tested, and the “combination Emax” value [1] was 0.166, the “combination Emax” value [2] was 0.919 and the “combination Emax” value [3] was 0.471. The “combination Emax” value (J82 (Bladder Carcinoma)) was 0.14, the “combination Emax” value [4] was 0.137 and the “combination Emax” value [5] was 0.139. For the same molecule, the “combination Emax” value [6] was 0.943, the “combination Emax” value [7] was 0.256 and the “combination Emax” value [8] was 0.0137. For the same molecule, the “combination Emax” value [9] was 0.054, the “combination Emax” value [10] was 0.132 and the “combination Emax” value [11] was 0.372. The “combination Emax” value (NCI-H2369 (Mesothelioma)) was 0.107, the “combination Emax” value (ES7 (Ewing's Sarcoma)) was 0.904 and the “combination Emax” value (DSH1 (Bladder Carcinoma)) was 0.282. For the same molecule, the “combination Emax” value (RH-1 (Ewing's Sarcoma)) was 0.0877, the “combination Emax” value [12] was 1 and the “combination Emax” value [13] was 0.234. For the same molecule, the “combination Emax” value [14] was 0.255 and the “combination Emax” value (CAL-78 (Chondrosarcoma)) was 0.212.
CC1(C)CCC(CN2CCN(c3ccc(C(=O)NS(=O)(=O)c4ccc(NCC5CCOCC5)c([N+](=O)[O-])c4)c(Oc4cnc5[nH]ccc5c4)c3)CC2)=C(c2ccc(Cl)cc2)C1 [Venetoclax] + Cc1cc2ncnn2cc1Nc1ncc2c(n1)n(C1CCOCC1)c(=O)n2C [AZD7648] (first compound max 1 µM, 7x7, partner max 10 µM) was tested, and the “combination Emax” value [1] was 0.261, the “combination Emax” value [2] was 0.628 and the “combination Emax” value [3] was 0.511. For the same molecule, the “combination Emax” value (J82 (Bladder Carcinoma)) was 0.131, the “combination Emax” value [4] was 0.356 and the “combination Emax” value [5] was 0.161. For the same molecule, the “combination Emax” value [6] was 0.957, the “combination Emax” value [7] was 0.254 and the “combination Emax” value [8] was 0.198. The “combination Emax” value [9] was 0.164, the “combination Emax” value [10] was 0.205 and the “combination Emax” value [11] was 0.362. The “combination Emax” value (NCI-H2369 (Mesothelioma)) was 0.164, the “combination Emax” value (ES7 (Ewing's Sarcoma)) was 0.714 and the “combination Emax” value (DSH1 (Bladder Carcinoma)) was 0.187. The “combination Emax” value (RH-1 (Ewing's Sarcoma)) was 0.242, the “combination Emax” value [12] was 0.989 and the “combination Emax” value [13] was 0.404. For the same molecule, the “combination Emax” value [14] was 0.275 and the “combination Emax” value (CAL-78 (Chondrosarcoma)) was 0.234.
With CC1(C)CCC(CN2CCN(c3ccc(C(=O)NS(=O)(=O)c4ccc(NCC5CCOCC5)c([N+](=O)[O-])c4)c(Oc4cnc5[nH]ccc5c4)c3)CC2)=C(c2ccc(Cl)cc2)C1 [Venetoclax] + Cn1cnc2c(F)c(Nc3ccc(Br)cc3Cl)c(C(=O)NOCCO)cc21 [Selumetinib] (first compound max 1 µM, 7x7, partner max 3 µM) the “combination Emax” value [1] was 0.289, the “combination Emax” value [2] was 0.278 and the “combination Emax” value [3] was 0.722. The “combination Emax” value (J82 (Bladder Carcinoma)) was 0.122, the “combination Emax” value [4] was 0.38 and the “combination Emax” value [5] was 0.097. The “combination Emax” value [6] was 0.914, the “combination Emax” value [7] was 0.424 and the “combination Emax” value [8] was 0.26. For the same molecule, the “combination Emax” value [9] was 0.2, the “combination Emax” value [10] was 0.64 and the “combination Emax” value [11] was 0.293. For the same molecule, the “combination Emax” value (NCI-H2369 (Mesothelioma)) was 0.119, the “combination Emax” value (ES7 (Ewing's Sarcoma)) was 0.7 and the “combination Emax” value (DSH1 (Bladder Carcinoma)) was 0.341. The “combination Emax” value (RH-1 (Ewing's Sarcoma)) was 0.0877, the “combination Emax” value [12] was 1 and the “combination Emax” value [13] was 0.324. The “combination Emax” value [14] was 0.275 and the “combination Emax” value (CAL-78 (Chondrosarcoma)) was 0.146.

Reference: the supplement of paper PMC11061612
